In US20150299233A1, “COMPOSITIONS AND METHODS COMPRISING RHENIUM FOR THE TREATMENT OF CANCERS” (Massachusetts Institute of Technology, priority 2014, published 2015):

How the values were obtained:
[1] = Lipophilicity, partition between octanol and water; format: physicochemical; details: experimentally determined
A549 cells = assay: Immunoblotting analysis of treated A549 cells; format: cell-based, human; details: for cleaved caspases 7 and 9: 50-500 nM for 72 h; for FADD and cleaved caspase 8 expression: increasing concentration; for overall expression level of RIP1 and RIP3: increasing dosages
Method: In order to determine the cell-killing mechanism of 1 and 2, cytotoxicity studies in the presence of apoptosis and necrosis inhibitors were conducted. […] The possibility that 1 and 2 induce necroptosis was then investigated. Necroptosis is a well-regulated mode of cell death that is different from unregulated necrosis and apoptosis. Unlike unregulated necrosis, which can be induced by H2O2 or heat, necroptosis generally involved the interaction of protein kinases, RIP1 and RIP3, to initiate cell disintegration. This process can be blocked by necrostatin-1, a potent RIP1 kinase inhibitor. To determine whether 1 and 2 induced necroptosis and/or uncontrolled necrosis, cytotoxicity studies were conducted in the presence of necrostatin-1 (60 μM) and IM-54 (10 μM), an inhibitor of H2O2-induced necrosis. […] Therefore, 1- and 2-induced cell death relies on RIP1-RIP3 complex formation and not on the expression levels of the individual protein kinases. RIP1 can also form a cytosolic complex with Fas-associated death domain (FADD) and caspase 8, known as a ripoptosome, to initiate apoptosis (through caspase 8 cleavage).
(§1) (PARP-1). PARP-1 is a nuclear enzyme that is involved in DNA repair and transcriptional regulation. DNA damage can trigger PARP-1 activity, resulting in ATP and NAD depletion and bioenergetics- mediated cell death. To determine whether PARP-1 activity is a factor in 1- and 2-mediated cell death, cytotoxicity assays were conducted with wild-type mouse embryonic fibroblast cells (MEFs PARP-1+/+) and the corresponding PARP-1-null cells (MEFs PARP-1−/−). […] Recently, p53 has also been reported to play a role in necroptosis. p53 induces cathepsin Q, a lysosomal protease that cooperates with ROS to execute necrosis. To investigate whether p53 might play a role in 1- and 2-mediated necroptosis, cytotoxicity studies were conducted with HCT116 p53^+/+ nd HCT116 p53^−/− cells.
Immunoblotting Analysis. A549 cells (1.5×10^6 cells/well) grown in six-well plates were incubated with 1 and 2 (concentrations, sub-μM) for 72 h at 37° C. Cells were washed with PBS, scraped into SDS-PAGE loading buffer (64 mM Tris-HCl (pH 6.8)/9.6% glycerol/2% SDS/5% /1-mercaptoethanol/0.01% Bromophenol Blue), and incubated at 95° C. for 10 min. Whole cell lysates were resolved by 4-20% sodium dodecyl sulfate polyacylamide gel electrophoresis (SDS-PAGE; 200 V for 25 min), followed by electro-transfer to polyvinylidene difluoride membrane (350 mA for 1 h). Membranes were blocked in 5% (w/v) non-fat milk in PBST (PBS/0.1% Tween 20) and incubated with the appropriate primary antibodies (Cell Signalling Technology and Santa Cruz). After incubation with horseradish peroxidase-conjugated secondary antibodies (Cell Signalling Technology), immuno complexes were detected with the ECL detection reagent (BioRad) and analyzed using an Alpha Innotech Chemilmager 5500 instrument fitted with a chemiluminescence filter.

[2] = test system: HCT116 p53+/+ and HCT116 p53−/− cells; assay: Cytotoxicity in HCT116 p53+/+ versus p53-/- cells; format: cell-based; details: 72 h, FIG. 3B
Method: as §1
Cell Cycle Analysis. To gain a more complete understanding of the cellular response evoked, DNA-flow cytometric studies were conducted to determine the effect of 1 and 2 on the cell cycle. A549 cells were treated with 1 or 2 (2 μM), and the cell cycle was determined over the course of 72 h. […] Upon further incubation (72 h), large populations of cell debris were detected (32%), indicative of cell death. […]
Cytotoxicity MTT Assay. […] The absorbance of the solution wells was read at 550 nm. Absorbance values were normalized to DMSO-containing control wells and plotted as the concentration of test compound versus % cell viability. […]

[3] = Stability in whole human blood (octanol extraction, GFAAS); format: in vitro ADME; details: 500 μM, fresh human blood, 37° C.
Method: The stability of biologically active compounds in human blood is vitally important for their potential application in clinical settings. The stability of 1 in whole human blood using a recently developed protocol was investigated. The method exploits the ability of octanol to extract hydrophobic metal complexes such as 1. The rhenium complex 1 (500 μM) was incubated with fresh human blood at 37° C., and aliquots were extracted into octanol at various time points. The amount of 1 in the octanol extracts (corresponding to unreacted 1) was measured by graphite furnace atomic absorption spectroscopy (GFAAS).

Row | Compound | log P [1] | markers of DNA damage, phosphorylated H2AX (γH2AX) and CHK2 (A549 cells) | cleaved caspases 7 and 9 (A549 cells) | FADD and cleaved caspase 8 expression (A549 cells) | overall expression level of RIP1 and RIP3 (A549 cells) | potency in HCT116 p53+/+ compared with HCT116 p53−/− [2] | half-life in human blood [3]
1 | C[O][Re-2]1(=[O])([Cl])([Cl])[n+]2cc(C)c(C)c3ccc4c(C)c(C)c[n+]1c4c32 [Compound 2, [ReO(OMe)(3,4,7,8-tetramethyl-1,10-phenanthroline)Cl2]] | 0.95 | did not up-regulate | not detected | remained unaltered | remained unchanged | statistically similar | 
2 | C[O][Re](=[O])([Cl])[Cl].c1ccc(-c2ccnc3c2ccc2c(-c4ccccc4)ccnc23)cc1 [Compound 1, [ReO(OMe)(4,7-diphenyl-1,10-phenanthroline)-Cl2]] | 1.20 | did not up-regulate | not detected | remained unaltered | remained unchanged | statistically similar | 29.1 min
